Test results taken from US5422126A, “Halogen compositions for water treatment and method of preparation thereof” (priority 1993, dated 1995).
Converted amounts (≈) assume the structure as drawn.

How the values were obtained:
[1] = Water solubility of solid halogenated hydantoins and amount of halogen dissolved in a saturated solution; details: for Amount of halogen dissolved in saturated solution: saturated solution in water
[2] = physchem; details: water

solubility [2] [µg/mL] | solubility ([1]; water) [µg/mL] | SMILES | Amount of halogen dissolved in saturated solution [1] [mg/L as Cl2] | Water solubility ([1]; solid halogenated hydantoin in water) [%]
– | – | CC1(C)C(=O)N(Cl)C(=O)N1Br [Bromo-chlorodimethylhydantoin, bromochlorodimethylhydantoin] | 825 | 0.15
2100 (≈ 10.7 mM) | – | CC1(C)C(=O)N(Cl)C(=O)N1Cl [Dichlorodimethylhydantoin, dichlorodimethylhydantoin] | – | –
– | 1100 (≈ 3.85 mM) | CC1(C)C(=O)N(Br)C(=O)N1Br [Dibromodimethylhydantion, 1,3-dibromo-5,5-dimethylhydantoin] | 542 | –
